Results reported in ChEMBL document CHEMBL2380259, “Indazole-based potent and cell-active Mps1 kinase inhibitors: rational design from pan-kinase inhibitor anthrapyrazolone (SP600125)” (J Med Chem, 2013).

What was measured:
[1] = biological target: T1, Dual specificity protein kinase TTK (Homo sapiens, UniProt P33981); assay: Inhibition of MPS1 (unknown origin) using biotin-labeled AGAGLARHTDDEMTGYVA as substrate after 90 mins by DELFIA
T1 sequence (P33981 whole entry): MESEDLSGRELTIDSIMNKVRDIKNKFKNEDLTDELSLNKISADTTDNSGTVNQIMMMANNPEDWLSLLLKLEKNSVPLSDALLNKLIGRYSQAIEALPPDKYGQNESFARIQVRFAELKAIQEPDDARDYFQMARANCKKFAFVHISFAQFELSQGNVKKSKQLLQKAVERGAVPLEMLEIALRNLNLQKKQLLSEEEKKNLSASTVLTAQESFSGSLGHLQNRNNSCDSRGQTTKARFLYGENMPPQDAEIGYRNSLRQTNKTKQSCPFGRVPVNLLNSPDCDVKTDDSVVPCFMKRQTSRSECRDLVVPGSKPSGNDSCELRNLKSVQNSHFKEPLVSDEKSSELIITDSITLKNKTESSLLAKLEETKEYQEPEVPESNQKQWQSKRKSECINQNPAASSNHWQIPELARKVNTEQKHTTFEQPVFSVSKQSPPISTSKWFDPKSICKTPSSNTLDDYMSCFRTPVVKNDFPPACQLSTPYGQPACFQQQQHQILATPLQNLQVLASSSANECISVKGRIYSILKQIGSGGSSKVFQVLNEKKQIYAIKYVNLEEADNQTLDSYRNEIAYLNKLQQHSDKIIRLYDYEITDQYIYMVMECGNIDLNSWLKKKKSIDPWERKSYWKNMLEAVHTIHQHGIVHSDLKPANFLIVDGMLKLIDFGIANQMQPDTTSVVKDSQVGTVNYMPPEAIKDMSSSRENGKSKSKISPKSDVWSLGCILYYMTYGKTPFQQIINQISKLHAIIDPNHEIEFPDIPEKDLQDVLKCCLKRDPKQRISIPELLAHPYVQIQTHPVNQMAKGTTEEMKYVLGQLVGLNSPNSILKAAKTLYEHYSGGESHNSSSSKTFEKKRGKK

[2] = Oral bioavailability in Sprague-Dawley rat at 1 mg/kg by LC-MS/MS analysis; assay type: ADME, organism-based; conditions: in vivo
[3] = Cmax in Sprague-Dawley rat at 1 mg/kg, po by LC-MS/MS analysis; assay type: ADME, organism-based; parameters: dose 1 mg/kg, route oral; conditions: in vivo
[4] = AUC in Sprague-Dawley rat at 1 mg/kg, po by LC-MS/MS analysis; assay type: ADME, organism-based; parameters: dose 1 mg/kg, route oral; conditions: plasma
[5] = Volume of distribution at steady state in Sprague-Dawley rat at 0.5 mg/kg, iv by LC-MS/MS analysis; assay type: ADME, organism-based; parameters: dose 0.5 mg/kg, route intravenous; conditions: in vivo, read-out: Vdss
[6] = Clearance in Sprague-Dawley rat at 0.5 mg/kg, iv by LC-MS/MS analysis; assay type: ADME, organism-based; parameters: dose 0.5 mg/kg, route intravenous; conditions: in vivo
[7] = Metabolic stability in Sprague-Dawley rat hepatocytes assessed as compound remaining at 2 uM after 1 hr by LC-MS/MS analysis; assay type: ADME, cell-based, Hepatocyte; conditions: read-out: Stability
[8] = biological target: Serine/threonine-protein kinase PLK1 (Homo sapiens, UniProt P53350); assay: Inhibition of human PLK1
[9] = Apparent permeability across MDCK cells; assay type: ADME, cell-based, Canis lupus familiaris; conditions: dog
[10] = Lipophilicity index, log K of the compound by RP-HPLC analysis; assay type: physicochemical
[11] = biological target: T1, Dual specificity protein kinase TTK; assay: Inhibition of FLAG-tagged MPS1 phosphorylation in human RERF-LC-AI Tet-off cells after 3 hrs; assay type: cell-based
[12] = biological target: Mitogen-activated protein kinase 8 (Homo sapiens, UniProt P45983); assay: Inhibition of JNK1 (unknown origin) using ATF2 as substrate measured after 1 hr by ELISA
A549 = assay: cells; conditions: Homo sapiens, A549, 72 h
[13] = biological target: T1, Dual specificity protein kinase TTK

Mitogen-activated protein kinase 8, sequence (P45983 whole entry): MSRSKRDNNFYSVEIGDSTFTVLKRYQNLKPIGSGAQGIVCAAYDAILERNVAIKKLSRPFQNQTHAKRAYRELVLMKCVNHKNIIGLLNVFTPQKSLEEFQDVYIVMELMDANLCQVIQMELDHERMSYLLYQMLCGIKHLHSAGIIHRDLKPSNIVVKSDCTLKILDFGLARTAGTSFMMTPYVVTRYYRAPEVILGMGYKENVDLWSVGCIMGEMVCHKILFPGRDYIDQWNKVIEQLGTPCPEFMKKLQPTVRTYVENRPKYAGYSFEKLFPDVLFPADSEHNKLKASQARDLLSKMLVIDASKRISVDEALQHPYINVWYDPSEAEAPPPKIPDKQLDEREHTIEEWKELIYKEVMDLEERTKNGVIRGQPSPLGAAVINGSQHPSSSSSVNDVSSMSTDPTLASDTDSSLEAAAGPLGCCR
Serine/threonine-protein kinase PLK1, sequence (P53350 whole entry): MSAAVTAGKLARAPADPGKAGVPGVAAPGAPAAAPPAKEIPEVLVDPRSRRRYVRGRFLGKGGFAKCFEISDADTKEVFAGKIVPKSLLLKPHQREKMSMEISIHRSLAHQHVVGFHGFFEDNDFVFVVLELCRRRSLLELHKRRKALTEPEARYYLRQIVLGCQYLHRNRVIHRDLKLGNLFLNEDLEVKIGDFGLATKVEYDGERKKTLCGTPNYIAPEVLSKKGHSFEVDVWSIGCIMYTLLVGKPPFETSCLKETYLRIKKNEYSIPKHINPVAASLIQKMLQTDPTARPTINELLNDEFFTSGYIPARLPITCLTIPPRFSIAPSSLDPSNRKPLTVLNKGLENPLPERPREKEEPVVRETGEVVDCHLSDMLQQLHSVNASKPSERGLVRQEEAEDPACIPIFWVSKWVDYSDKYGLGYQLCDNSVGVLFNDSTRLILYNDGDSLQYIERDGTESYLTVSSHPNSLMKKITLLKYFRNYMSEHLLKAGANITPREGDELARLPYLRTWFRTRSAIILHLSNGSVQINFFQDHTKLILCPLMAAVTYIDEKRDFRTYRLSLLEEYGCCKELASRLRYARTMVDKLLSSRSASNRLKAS

| SMILES | IC50 [1] [µM] | log K [10] | IC50 [11] [µM] | IC50 [12] [µM] | IC50 (A549) [µM] | also measured |
| --- | --- | --- | --- | --- | --- | --- |
| c1ccc(-c2[nH]nc3ccccc23)cc1 | 2.1 |  |  |  |  |  |
| Cn1cc(-c2cc3[nH]nc(-c4cccc(S(N)(=O)=O)c4)c3cc2NC2CCCCC2)cn1 | 0.0104 | 0.92 | 0.0205 | 0.037 | 0.152 | bioavailability [2]: 2.3%; Cmax [3]: 1.4 ng/mL; AUC [4]: 11.5 ng·h/mL; Vd [5]: 2.8 L/kg; clearance [6]: 33 mL/min/kg; remaining at 1 h, 2 µM [7]: 69%; IC50 [8]: > 5 µM; Papp [9]: 2.69 ×10⁻⁶ cm/s |
| Cn1cc(-c2cc3[nH]nc(-c4cccc(S(N)(=O)=O)c4)c3cc2OC2CCCCC2)cn1 | 0.00793 | 0.93 | 0.074 | 0.118 | 0.646 |  |
| Cc1cc(N2CCOCC2)ccc1Nc1nc(NC2CCCCC2)c2nc[nH]c2n1 |  |  |  |  | > 10 |  |
| CCOc1cc2c(-c3cccc(S(N)(=O)=O)c3)n[nH]c2cc1-c1cnn(CC(C)C)c1 | 0.119 | 0.87 | 4.11 | 0.441 | 6.46 |  |
| Oc1c2ccccc2c2c3c(cccc13)N=N2 [SP-600125] |  |  |  |  |  | IC50 [13]: 0.098 µM |
| CCOc1ccc2[nH]nc(-c3cccc(S(N)(=O)=O)c3)c2c1 | 0.028 | 0.79 | 2.74 | 0.15 | > 20 |  |
| CCc1cccc(CC)c1NC(=O)c1nn(C)c2c1CCc1cnc(Nc3ccc(C(=O)NC4CCN(C)CC4)cc3OC(F)(F)F)nc1-2 |  |  |  |  | 1.25 |  |
| CCOc1ccc2[nH]nc(-c3ccccc3)c2c1 | 0.498 |  |  |  |  |  |
| CCOc1cc2c(-c3ccc(C)c(S(N)(=O)=O)c3)n[nH]c2cc1-c1cnn(C)c1 | 0.00367 | 0.82 | 0.198 | 0.0435 | 0.686 |  |

The next lines start with results.

| IC50 [1] [µM] | log K [10] | IC50 [11] [µM] | IC50 [12] [µM] | IC50 (A549) [µM] | SMILES | also measured |
| --- | --- | --- | --- | --- | --- | --- |
| 0.032 | 0.87 | 9.72 | 0.043 | 6.38 | CCOc1cc2c(-c3cccc(NC(C)=O)c3)n[nH]c2cc1C#N |  |
| 0.00306 | 0.79 | 0.0858 | 0.0937 | 1.02 | CCOc1cc2c(-c3cccc(S(N)(=O)=O)c3)n[nH]c2cc1-c1cnn(C)c1 | Papp [9]: 0.6 ×10⁻⁶ cm/s |
| 0.017 | 0.86 | 3.35 | 0.175 | > 20 | CCOc1cc2c(-c3cccc(S(N)(=O)=O)c3)n[nH]c2cc1C#N |  |
| 0.116 |  |  | 0.0795 |  | CCOc1ccc2[nH]nc(-c3cccc(NC(C)=O)c3)c2c1 |  |
| 0.189 |  |  | 0.0428 |  | CCOc1ccc2[nH]nc(-c3cccc(C(N)=O)c3)c2c1 |  |
| 0.438 |  |  | 0.169 |  | CCOc1ccc2[nH]nc(-c3ccc(NC(C)=O)cc3)c2c1 |  |
| 0.00976 | 0.74 | 2.07 | 0.141 | > 10 | CCOc1cc2c(-c3cccc(S(N)(=O)=O)c3)n[nH]c2cc1-c1cn[nH]c1 |  |
| 0.012 | 0.94 | 0.0304 | 0.0121 | 0.283 | CC(=O)Nc1cccc(-c2n[nH]c3cc(-c4cnn(C)c4)c(NC4CCCCC4)cc23)c1 | bioavailability [2]: 17%; Cmax [3]: 18 ng/mL; AUC [4]: 149 ng·h/mL; Vd [5]: 1 L/kg; clearance [6]: 19 mL/min/kg; remaining at 1 h, 2 µM [7]: 64%; IC50 [8]: > 5 µM; Papp [9]: 20.5 ×10⁻⁶ cm/s |
| 0.173 | 0.91 | > 10 | 1.03 | > 10 | CCOc1cc2c(-c3cccc(S(N)(=O)=O)c3)n[nH]c2cc1-c1ccccc1 |  |
